Results reported in patent US5855916A, “Highly soluble multicomponent inclusion complexes containing a base type drug, an acid and a cyclodextrin” (priority 1993, dated 1999).
In brackets after ≈: the same amount, converted by molar mass. Where two headings read alike, the source gives them in different places.

Key:
[1] = acidic conditions; Kikuchi et al.; cited from earlier work
[2] = for Water solubility, drug concentration F: FB/AT/βCD / Solubility ratio to FB: FB/AT/βCD: drug/tartaric acid/β-CD multicomponent complex; for Water solubility, drug concentration F: FB/βCD: drug/β-cyclodextrin complex; for Solubility ratio to FB: FB: drug alone; for Solubility ratio to FB: FB/AT: drug with tartaric acid; for Water solubility, drug concentration F: FB/DIMEB: drug/DIMEB complex; for Water solubility, drug concentration F: FB/HPβ-CD: drug/HPβ-CD complex; for Water solubility, drug concentration F: FB/RAMEB: drug/RAMEB complex; for Water solubility, drug concentration F: FB/α-CD: drug/α-CD complex; for Water solubility, drug concentration F: FB/γ-CD: drug/γ-CD complex
physchem = conditions: water
[3] = 1 mmol terfenadine, 15 ml water, 6 mmol acetic or 4 mmol formic acid
[4] = Effect of some acids on the β-CD solubility; format: physicochemical
Description: In a test tube 1000 mg of β-CD in 5 ml of a solution having different concentrations of an acid selected from tartaric, citric, lactic acid, were let to equilibrate for two days at 28*/-2° C. under stirring. The solution was filtered and β-CD concentration was determined by HPLC.

[5] = simultaneous administration of citric acid; Tokumura et al.; cited from earlier work
[6] = Table 1, drug tartrate in β-CD solution, room temperature
[7] = drug concentration F: FB, Table 1, basic-type drug alone, room temperature
[8] = drug concentration F: FB/AT, Table 1, drug with tartaric acid, room temperature
[9] = drug concentration F: FB, Table 3, basic-type drug alone

SMILES: CCCCCCNC(=O)n1cc(F)c(=O)[nH]c1=O [HCFU, 1-hexylcarbamoyl-5-fluorouracil]
- Chemical stability [1]: chemically stable under acidic conditions

SMILES: CC(=O)N1CCN(c2ccc(OCC3COC(Cn4ccnc4)(c4ccc(Cl)cc4Cl)O3)cc2)CC1 (stereo not drawn) [Ketoconazole]
- Water solubility, drug concentration F: FT/βCD [2, 6]: 21000 µg/mL
- Water solubility, drug concentration F: FB/AT/βCD ([2]; Table 1, room temperature): 110000 µg/mL
- Water solubility, drug concentration F: FB/βCD ([2]; Table 1, room temperature): 1240 µg/mL
- solubility (physchem; [7]): 50 µg/mL (≈ 94.1 µM)
- solubility (physchem; [8]): 21000 µg/mL (≈ 39500 µM)

SMILES: CC(C)(C)c1ccc(C(O)CCCN2CCC(C(O)(c3ccccc3)c3ccccc3)CC2)cc1 (stereo not drawn) [Terfenadine]
- Dissolution attempt with acid without cyclodextrin [3]: not successful

SMILES: OC[C@H]1O[C@@H]2O[C@H]3[C@H](O)[C@@H](O)[C@@H](O[C@H]4[C@H](O)[C@@H](O)[C@@H](O[C@H]5[C@H](O)[C@@H](O)[C@@H](O[C@H]6[C@H](O)[C@@H](O)[C@@H](O[C@H]7[C@H](O)[C@@H](O)[C@@H](O[C@H]8[C@H](O)[C@@H](O)[C@@H](O[C@H]1[C@H](O)[C@H]2O)O[C@@H]8CO)O[C@@H]7CO)O[C@@H]6CO)O[C@@H]5CO)O[C@@H]4CO)O[C@@H]3CO [β-CD]
- β-CD concentration ([4]; citric acid 0 mg/ml, 2880 min): 18.3 mg/mL
- β-CD concentration ([4]; citric acid 9.6 mg/ml, 2880 min): 34.1 mg/mL
- β-CD concentration ([4]; citric acid 19.2 mg/ml, 2880 min): 47.9 mg/mL
- β-CD concentration ([4]; citric acid 48.0 mg/ml): 86.1 mg/mL
- β-CD concentration ([4]; citric acid 96.0 mg/ml, 2880 min): 140.1 mg/mL
- β-CD concentration ([4]; citric acid 144.0 mg/ml, 2880 min): 195.7 mg/mL
- Effect of tartaric and citric acid on water solubility of β-CD ([4]; depending on acid concentration): remarkably enhance the water solubility
- β-CD concentration ([4]; lactic acid 0 mg/ml, 2880 min): 18.3 mg/mL
- β-CD concentration ([4]; lactic acid 9.0 mg/ml, 2880 min): 18.8 mg/mL
- β-CD concentration ([4]; lactic acid 22.5 mg/ml, 2880 min): 24.2 mg/mL
- β-CD concentration ([4]; lactic acid 67.5 mg/ml, 2880 min): 35.8 mg/mL
- Effect of lactic acid on water solubility of β-CD ([4]; lactic acid, compared with tartaric and citric acid): lower effect
- Increase of the β-CD solubility in the binary system acid-β-CD ([4]; tartaric 11 and citric 17 mg/ml respectively): about 2 times
- β-CD concentration ([4]; tartaric acid 0 mg/ml, 2880 min): 18.3 mg/mL
- β-CD concentration ([4]; tartaric acid 15.0 mg/ml, 2880 min): 31.4 mg/mL
- β-CD concentration ([4]; tartaric acid 112.5 mg/ml, 2880 min): 83.7 mg/mL

SMILES: C(=C\c1ccccc1)/CN1CCN(C(c2ccccc2)c2ccccc2)CC1 [Cinnarizine]
- Difference in bioavailability between cinnarizine + citric acid and its β-cyclodextrin complex + citric acid [5]: no significant difference

SMILES: COc1ccc(CCN2CCC(Nc3nc4ccccc4n3Cc3ccc(F)cc3)CC2)cc1 [Astemizole]
- Solubility ratio to FB: FB ([2]; Table 1): 1 x
- Solubility ratio to FB: FT/βCD ([2]; Table 1, drug tartrate in β-CD solution): 1975 x
- Water solubility, drug concentration F: FT/βCD [2, 6]: 7900 µg/mL
- Solubility ratio to FB: FB/AT ([2]; Table 1): 817.5 x
- Solubility ratio to FB: FB/AT/βCD ([2]; Table 1): 22500 x
- Water solubility, drug concentration F: FB/AT/βCD ([2]; Table 1, room temperature): 90000 µg/mL
- Solubility ratio to FB: FB/βCD ([2]; Table 1, drug/β-CD complex): 16 x
- Water solubility, drug concentration F: FB/βCD ([2]; Table 1, room temperature): 65 µg/mL
- Solubility ratio to FB: FB/DIMEB ([2]; Table 3): 303 x
- Solubility ratio to FB: FB/HPβ-CD ([2]; Table 3): 86 x
- Solubility ratio to FB: FB/RAMEB ([2]; Table 3): 275 x
- Solubility ratio to FB: FB/α-CD ([2]; Table 3): 6 x
- Solubility ratio to FB: FB/γ-CD ([2]; Table 3): 6.6 x
- Water solubility, drug concentration F: FB/DIMEB ([2]; Table 3): 1245 µg/mL
- Water solubility, drug concentration F: FB/HPβ-CD ([2]; Table 3): 353 µg/mL
- Water solubility, drug concentration F: FB/RAMEB ([2]; Table 3): 1100 µg/mL
- Water solubility, drug concentration F: FB/α-CD ([2]; Table 3): 24 µg/mL
- Water solubility, drug concentration F: FB/γ-CD ([2]; Table 3): 27 µg/mL
- solubility (physchem; [7]): 4 µg/mL (≈ 8.72 µM)
- solubility (physchem; [9]): 4 µg/mL (≈ 8.72 µM)
- solubility (physchem; [8]): 3270 µg/mL (≈ 7130 µM)

SMILES: CCN(CC)CCOc1ccc(C(=C(Cl)c2ccccc2)c2ccccc2)cc1 [Clomifene]
- Solubility ratio to FB: FB ([2]; Table 2): 1 x
- Solubility ratio to FB: FC/βCD ([2]; Table 2, drug citrate in β-CD solution): 500 x
- Water solubility, drug concentration F: FC/βCD ([2]; Table 2, drug citrate in β-CD solution, room temperature): 20000 µg/mL
- Solubility ratio to FB: FB/AC ([2]; Table 2, drug with citric acid): 155 x
- Solubility ratio to FB: FB/AC/βCD ([2]; Table 2, drug/citric acid/β-CD multicomponent complex): 1925 x
- Water solubility, drug concentration F: FB/AC/βCD ([2]; Table 2, drug/citric acid/β-CD multicomponent complex, room temperature): 77000 µg/mL
- Solubility ratio to FB: FB/CD ([2]; Table 2, drug/β-CD complex): 7 x
- Water solubility, drug concentration F: FB/CD ([2]; Table 2, drug/β-CD complex, room temperature): 280 µg/mL
- solubility (physchem; drug concentration F: FB, Table 2, basic-type drug alone, room temperature): 40 µg/mL (≈ 98.5 µM)
- solubility (physchem; drug concentration F: FB/AC, Table 2, drug with citric acid, room temperature): 6200 µg/mL (≈ 15300 µM)

SMILES: O=c1[nH]c2ccccc2n1CCCN1CCC(n2c(=O)[nH]c3cc(Cl)ccc32)CC1 [Domperidone]
- Solubility ratio to FB: FB ([2]; Table 1): 1 x
- Solubility ratio to FB: FB/AT ([2]; Table 1): 2000 x
- Solubility ratio to FB: FB/AT/βCD ([2]; Table 1): 5000 x
- Water solubility, drug concentration F: FB/AT/βCD ([2]; Table 1, room temperature): 25000 µg/mL
- Solubility ratio to FB: FB/βCD ([2]; Table 1, drug/β-CD complex): 4.4 x
- Water solubility, drug concentration F: FB/βCD ([2]; Table 1, room temperature): 22 µg/mL
- Solubility ratio to FB: FB/AT/DIMEB ([2]; Table 3): 600 x
- Solubility ratio to FB: FB/AT/HPβ-CD ([2]; Table 3): 10000 x
- Solubility ratio to FB: FB/AT/RAMEB ([2]; Table 3): 6000 x
- Solubility ratio to FB: FB/AT/α-CD ([2]; Table 3): 5000 x
- Solubility ratio to FB: FB/AT/γ-CD ([2]; Table 3): 6000 x
- Solubility ratio to FB: FB/DIMEB ([2]; Table 3): 112 x
- Solubility ratio to FB: FB/HPβ-CD ([2]; Table 3): 32 x
- Solubility ratio to FB: FB/RAMEB ([2]; Table 3): 56 x
- Solubility ratio to FB: FB/α-CD ([2]; Table 3): 6.6 x
- Solubility ratio to FB: FB/γ-CD ([2]; Table 3): 8 x
- Water solubility, drug concentration F: FB/DIMEB ([2]; Table 3): 560 µg/mL
- Water solubility, drug concentration F: FB/HPβ-CD ([2]; Table 3): 160 µg/mL
- Water solubility, drug concentration F: FB/RAMEB ([2]; Table 3): 280 µg/mL
- Water solubility, drug concentration F: FB/AT/DIMEB ([2]; Table 3, drug/tartaric acid/DIMEB multicomponent complex): 30000 µg/mL
- Water solubility, drug concentration F: FB/AT/HPβ-CD ([2]; Table 3, drug/tartaric acid/HPβ-CD multicomponent complex): 50000 µg/mL
- Water solubility, drug concentration F: FB/AT/RAMEB ([2]; Table 3, drug/tartaric acid/RAMEB multicomponent complex): 30000 µg/mL
- Water solubility, drug concentration F: FB/AT/α-CD ([2]; Table 3, drug/tartaric acid/α-CD multicomponent complex): 25000 µg/mL
- Water solubility, drug concentration F: FB/AT/γ-CD ([2]; Table 3, drug/tartaric acid/γ-CD multicomponent complex): 30000 µg/mL
- Water solubility, drug concentration F: FB/α-CD ([2]; Table 3): 33 µg/mL
- Water solubility, drug concentration F: FB/γ-CD ([2]; Table 3): 40 µg/mL
- solubility (physchem; [7]): 5 µg/mL (≈ 11.7 µM)
- solubility (physchem; [9]): 5 µg/mL (≈ 11.7 µM)
- solubility (physchem; [8]): 10000 µg/mL (≈ 23500 µM)
